Structures can show the parent of a compound that is named as a salt.
Test system: engineered Str^r mutant E. coli ORN 208
Experiment: minimal inhibitory concentration (MIC) against streptomycin-resistant E. coli
Format: cell-based, Escherichia coli
Experimental: The diverse particle size affects inhibition and control. Silica nanoparticles were synthesized with an average of 80, 50 and 30 nm. Streptomycin was conjugated via photocoupling method through perfluorophenyl azide (PFPA) chemistry. The MIC for free streptomycin sulfate was recorded as a high 2.0 mg/mL for an engineered Str^r mutant E. coli ORN 208.
It is reasonable to hypothesize that the more nanoparticles internalize into the bacteria the greater the effect of the antibiotic. […] The comparative difference of the streptomycin that can exert MIC is shown in FIG. 9 for the engineered Str^r mutant E. coli ORN 208 .

Question: Which MIC (Escherichia coli, read-out: minimum inhibitory concentration (MIC)) does the source give for `[H]/N=C(/N)N[C@H]1[C@H](O)[C@@H](O)[C@H](O[C@@H]2O[C@@H](C)[C@](O)(C=O)[C@H]2O[C@@H]2O[C@@H](CO)[C@H](O)[C@@H](O)[C@@H]2NC)[C@@H](N/C(N)=N\[H])[C@@H]1O` [free streptomycin sulfate, Streptomycin sulfate] here?
Answer: 2000 µg/mL

Question: What about the “minimum inhibitory concentration (MIC)” value (streptomycin resistant E. coli, MIC as streptomycin) of the same molecule?
Answer: 2000 µg/mL
